According to PubChem BioAssay (NCI):
“And” between values parts separate entries of the source, which are not always exact repeats. Equal entries are not always repeated.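 These data come from cells grown in 96-well plates and exposed to compound for 48 hours at five concentrations. The concentration for 50% growth inhibition is given as GI50. The concentration for full growth arrest is given as TGI.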

Columns and labels:
Test in all cases: NCI tumour cell line growth inhibition, 48 h
[1] = test system: 786-0 renal
[2] = test system: CCRF-CEM leukemia
[3] = test system: EKVX NSCLC
[4] = test system: KM12 colon
[5] = test system: MDA-MB-435
[6] = test system: NCI-H522 lung
[7] = test system: OVCAR-3 ovarian
[8] = test system: OVCAR-8 ovarian
[9] = test system: SF-268 CNS
[10] = test system: MOLT-4 leukemia

| SMILES | GI50 [1] [µM] | TGI [1] [µM] | GI50 [2] [µM] | TGI [2] [µM] | GI50 [3] [µM] | TGI [3] | GI50 [4] [µM] | TGI [4] | GI50 [5] [µM] | TGI [5] [µM] | GI50 [6] | TGI [6] | GI50 [7] [µM] | TGI [7] | GI50 [8] [µM] | TGI [8] | GI50 [9] [µM] | TGI [9] | TGI [10] | GI50 [10] |
| --- | --- | --- | --- | --- | --- | --- | --- | --- | --- | --- | --- | --- | --- | --- | --- | --- | --- | --- | --- | --- |
| O=C([O][Sn]([O]C(=O)c1ccccn1)([c]1ccccc1)[c]1ccccc1)c1ccccn1 | 5.14 | 16.8 | 0.565 | 2.95 | 13.7 | 26.9 µM | 13.2 | 25.9 µM | 2.29 | 6.04 | 0.14 µM | 0.291 µM | 1.62 | 2.98 µM | 11.3 | 24 µM | 2.76 | 9.09 µM |  |  |
| C=C1C(=O)OC2CC(C)C3CC(O)OC(OCC)C3(C)CC12 (stereo not given) |  | 25.1 |  | > 100 |  | > 62.2 µM |  | 42.6 µM |  | 37.6 |  | 18.8 µM |  | 31.3 µM |  | 31.4 µM |  | 34 µM | 56.4 µM |  |
| CC(C)=CCC(OC(=O)C=C(C)C)C1=CC(=O)c2c(O)ccc(O)c2C1=O (stereo not given) | 2.59 | 6.86 | 0.0241 |  | 2.28 | 6.2 µM and 2.2 µM | 6.61 | 23.9 µM and 6.52 µM | 2.09 | 4.77 | 0.414 µM and 0.104 µM | 1.84 µM and 0.231 µM | 0.5 | 2.07 µM and 2.62 µM | 2.27 | 7.19 µM and 2.98 µM | 3.35 | 9.83 µM and 4.06 µM | 1.29 µM and 1.42 µM | 0.182 µM and 0.0424 µM |
| CC1=Nc2ccccc2/C1=C\c1c(C)[nH]c2ccccc12 |  | 25.8 |  | > 100 |  | 29.7 µM |  | 26 µM |  | 26.7 |  | 23.6 µM |  | 34.8 µM |  | 27 µM |  | 28.6 µM | 40.2 µM |  |
| S=c1nc(N/N=C/c2ccco2)c2cn[nH]c2[nH]1 | > 100 | > 100 | 2.2 | > 100 | 51 | > 100 µM | 24.7 | > 100 µM | 45.7 | > 100 | 40.5 µM | > 100 µM | 32.3 | > 100 µM | 69.2 | > 100 µM | 48.4 | > 100 µM |  |  |
| Cc1nc2ccc(NC(=O)CCNC(=O)CCCc3ccc(CC(C(=O)O)C(=O)O)cc3)cc2s1 | > 100 | > 100 | > 100 | > 100 | > 100 | > 100 µM | > 100 | > 100 µM | > 100 | > 100 | > 100 µM | > 100 µM | > 100 | > 100 µM | > 100 | > 100 µM | > 100 | > 100 µM | > 100 µM | > 100 µM |
| O=c1/c(=C\c2ccc(F)cc2)sc2n1C(c1ccc(F)cc1)C1=C(N=2)c2ccc3ccccc3c2OCC1 (stereo not given) | > 100 | > 100 | > 100 | > 100 | > 100 | > 100 µM | > 89.8 | > 100 µM | > 100 | > 100 | > 100 µM | > 100 µM | > 100 | > 100 µM | > 100 | > 100 µM | > 30.8 | > 100 µM | > 100 µM | > 100 µM |
